What was measured:
chickweed = assay: Test Example 4: herbicidal effect by soil treatment (Table 19, symbol P); type: in vivo, common chickweed (Stellaria media); details: amount of applied herbicide 320 g/ha
Outline: (§1)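 In this soil treatment, the formulated compound reached the seeds only through the soil: seeds were buried about 1.5 cm deep in sterilized diluvial soil, then the diluted emulsion was sprayed over the surface. After three weeks at 25° C. to 30° C. in a greenhouse, effects were graded on criteria from an earlier test.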

green foxtail [1] = assay: Test Example 4: herbicidal effect by soil treatment (Table 19, symbol G); type: in vivo, green foxtail (Setaria viridis); details: amount of applied herbicide 320 g/ha
Outline: as §1

late watergrass [2] = assay: Test Example 1: herbicidal activity, application before weed generation under submerged conditions (Table 16, symbol A); type: in vivo, late watergrass (Echinochloa oryzicola); details: amount of applied herbicide 320 g/ha
Outline: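 Alluvial soil was flooded to 4 cm depth, weed seeds were sown mixed and 2.5-leaf rice seedlings were transplanted. On sowing day, the compound's emulsion, diluted in water to a set dose, was applied to the water surface. Plants grew at 25–30 °C and were scored 0–5 after three weeks.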

green foxtail [3] = assay: Test Example 5: herbicidal effect by foliage application, plastic box (Table 20, symbol G); type: in vivo, green foxtail (Setaria viridis); details: amount of applied herbicide 320 g/ha; foliage application after 14-day growth; evaluated three weeks after application
Outline: (§2)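 Plants were sown into sterilized diluvial soil under about 1.5 cm cover and kept in a greenhouse at 25° C. to 30° C. Fourteen days on, foliage received an even spray of the diluted emulsion. Herbicidal or crop effect was judged three weeks afterwards.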

Japanese bulrush = assay: Test Example 2: herbicidal activity, application during weed generation under submerged conditions (Table 17, symbol B); type: in vivo, Japanese bulrush (Schoenoplectus juncoides); details: AAH 320 g/ha; application during weed generation, submerged conditions
Outline: (§3)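 3-wk visual-criteria score after one water-surface dose. Emulsion formulation, water-diluted to set rate; applied at 1–2 leaf stage; alluvial soil, 4 cm standing water; seeds co-sown; greenhouse 25–30° C.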

persian speedwell [4] = assay: Test Example 5: herbicidal effect by foliage application, plastic box (Table 20, symbol R); type: in vivo, Persian speedwell (Veronica persica); details: amount of applied herbicide 320 g/ha; foliage application after 14-day growth; evaluated three weeks after application
Outline: as §2

rice flat sedge = assay: Test Example 3: herbicidal effect by foliage application, Wagner pot (Table 18, symbol E); type: in vivo, rice flat sedge (Cyperus iria); details: 320 g/ha
Outline: (§4)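 Plants were sown in alluvial soil held under 0.1–0.5 cm standing water and grown 14 days in a greenhouse at 25–30 °C. An emulsifiable formulation, water-diluted to the set dose, was then sprayed onto the foliage, and effects were scored three weeks later using previously defined criteria.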

windgrass [5] = assay: Test Example 5: herbicidal effect by foliage application, plastic box (Table 20, symbol L); type: in vivo, windgrass (Apera spica-venti); details: amount of applied herbicide 320 g/ha; foliage application after 14-day growth; evaluated three weeks after application
Outline: as §2

southern crabgrass = assay: Test Example 5: herbicidal effect by foliage application, plastic box (Table 20, symbol F); type: in vivo, southern crabgrass (Digitaria ciliaris); details: amount of applied herbicide 320 g/ha; foliage application after 14-day growth; evaluated three weeks after application
Outline: as §2

oval-leafed pondweed = assay: Test Example 2: herbicidal activity, application during weed generation under submerged conditions (Table 17, symbol C); type: in vivo, oval-leafed pondweed (Monochoria vaginalis); details: AAH 320 g/ha; application during weed generation, submerged conditions
Outline: as §3

Italian ryegrass [6] = assay: Test Example 5: herbicidal effect by foliage application, plastic box (Table 20, symbol K); type: in vivo, Italian ryegrass (Lolium multiflorum); details: amount of applied herbicide 320 g/ha; foliage application after 14-day growth; evaluated three weeks after application
Outline: as §2

Italian ryegrass [7] = assay: Test Example 4: herbicidal effect by soil treatment (Table 19, symbol K); type: in vivo, Italian ryegrass (Lolium multiflorum); details: amount of applied herbicide 320 g/ha
Outline: as §1

persian speedwell [8] = assay: Test Example 4: herbicidal effect by soil treatment (Table 19, symbol R); type: in vivo, Persian speedwell (Veronica persica); details: amount of applied herbicide 320 g/ha
Outline: as §1

lambsquarters = assay: Test Example 5: herbicidal effect by foliage application, plastic box (Table 20, symbol O); type: in vivo, lambsquarters (Chenopodium album); details: amount of applied herbicide 320 g/ha; foliage application after 14-day growth; evaluated three weeks after application
Outline: as §2

windgrass [9] = assay: Test Example 4: herbicidal effect by soil treatment (Table 19, symbol L); type: in vivo, windgrass (Apera spica-venti); details: amount of applied herbicide 320 g/ha
Outline: as §1

barnyard grass = assay: Test Example 3: herbicidal effect by foliage application, Wagner pot (Table 18, symbol H); type: in vivo, barnyard grass (Echinochloa crus-galli); details: 320 g/ha
Outline: as §4

late watergrass [10] = assay: Test Example 2: herbicidal activity, application during weed generation under submerged conditions (Table 17, symbol A); type: in vivo, late watergrass (Echinochloa oryzicola); details: AAH 320 g/ha; application during weed generation, submerged conditions
Outline: as §3

Compound | Herbicidal effect, A: late watergrass (late watergrass [2]) | Herbicidal effect by foliage application, G: green foxtail (green foxtail [3]) | herbicidal effect rating, B: Japanese bulrush (Japanese bulrush) | Herbicidal effect by foliage application, R: persian speedwell (persian speedwell [4]) | herbicidal effect on rice flat sedge (E) (rice flat sedge) | Herbicidal effect by foliage application, L: windgrass (windgrass [5]) | Herbicidal effect by foliage application, F: southern crabgrass (southern crabgrass) | herbicidal effect rating, C: oval-leafed pondweed (oval-leafed pondweed) | Herbicidal effect by foliage application, K: Italian ryegrass (Italian ryegrass [6]) | Herbicidal effect by foliage application, O: lambsquarters (lambsquarters) | herbicidal effect on barnyard grass (H) (barnyard grass) | herbicidal effect rating, A: late watergrass (late watergrass [10]) | also measured
CCSc1ccc(-c2sc3c(C)cccc3c2-c2c(O)c(C)nn(C)c2=O)cc1 [4-124] | 4 (Herbicidal rate of 70% or more and less than 90%) | 5 (Herbicidal rate of 90% or more (almost completely withered)) | 0 (Herbicidal rate of 5% or less (almost no effect)) | 5 (Herbicidal rate of 90% or more (almost completely withered)) | 5 (Herbicidal rate of 90% or more (almost completely withered)) | 5 (Herbicidal rate of 90% or more (almost completely withered)) | 3 (Herbicidal rate of 40% or more and less than 70%) | 0 (Herbicidal rate of 5% or less (almost no effect)) | 5 (Herbicidal rate of 90% or more (almost completely withered)) | 5 (Herbicidal rate of 90% or more (almost completely withered)) | 5 (Herbicidal rate of 90% or more (almost completely withered)) | 3 (Herbicidal rate of 40% or more and less than 70%) | Herbicidal effect by soil treatment, P: chickweed (chickweed): 4 (Herbicidal rate of 70% or more and less than 90%); Herbicidal effect by soil treatment, G: green foxtail (green foxtail [1]): 5 (Herbicidal rate of 90% or more (almost completely withered)); Herbicidal effect by soil treatment, K: Italian ryegrass (Italian ryegrass [7]): 4 (Herbicidal rate of 70% or more and less than 90%); Herbicidal effect by soil treatment, R: persian speedwell (persian speedwell [8]): 4 (Herbicidal rate of 70% or more and less than 90%); Herbicidal effect by soil treatment, L: windgrass (windgrass [9]): 0 (Herbicidal rate of 5% or less (almost no effect))
CCCC(=O)Oc1c(C)nn(C)c(=O)c1-c1c(-c2ccccc2OC)sc2cc(F)c(F)cc12 [5-012] | 4 (Herbicidal rate of 70% or more and less than 90%) | 1 (Herbicidal rate of 5% or more and less than 20%) | 2 (Herbicidal rate of 20% or more and less than 40%) | 3 (Herbicidal rate of 40% or more and less than 70%) | 3 (Herbicidal rate of 40% or more and less than 70%) | 1 (Herbicidal rate of 5% or more and less than 20%) | 0 (Herbicidal rate of 5% or less (almost no effect)) | 2 (Herbicidal rate of 20% or more and less than 40%) | 0 (Herbicidal rate of 5% or less (almost no effect)) | 3 (Herbicidal rate of 40% or more and less than 70%) | 4 (Herbicidal rate of 70% or more and less than 90%) | 0 (Herbicidal rate of 5% or less (almost no effect)) | P: chickweed, herbicidal effect grade (chickweed): 3 (Herbicidal rate of 40% or more and less than 70%); G: green foxtail, herbicidal effect grade (green foxtail [1]): 3 (Herbicidal rate of 40% or more and less than 70%); K: Italian ryegrass, herbicidal effect grade (Italian ryegrass [7]): 0 (Herbicidal rate of 5% or less (almost no effect)); R: persian speedwell, herbicidal effect grade (persian speedwell [8]): 3 (Herbicidal rate of 40% or more and less than 70%); L: windgrass, herbicidal effect grade (windgrass [9]): 3 (Herbicidal rate of 40% or more and less than 70%)
